According to patent US11161856B2 (H. Lundbeck A/S, priority 2017, dated 2021):

Key:
Assay type in all cases: biochemical
ABHD6 = biological target: T1, ABHD6 (Mus musculus, UniProt Q8R2Y0); experiment: In vitro competitive activity-based protein profiling, mouse brain proteome (ABHD6); details: mouse brain proteome; concentration not given (μM)
T1 construct: Brain; from tissue; host or cells: mouse brain proteome
T1 sequence (Q8R2Y0 1-336): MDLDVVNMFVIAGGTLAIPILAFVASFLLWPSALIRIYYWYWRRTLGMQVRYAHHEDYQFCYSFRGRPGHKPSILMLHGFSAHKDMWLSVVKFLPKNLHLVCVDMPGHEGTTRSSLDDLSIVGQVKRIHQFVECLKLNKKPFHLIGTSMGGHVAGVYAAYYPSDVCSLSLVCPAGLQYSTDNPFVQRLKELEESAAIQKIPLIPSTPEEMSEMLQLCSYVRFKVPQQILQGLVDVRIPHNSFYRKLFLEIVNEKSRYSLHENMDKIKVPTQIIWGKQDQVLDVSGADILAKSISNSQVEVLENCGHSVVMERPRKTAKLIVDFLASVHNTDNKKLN
Description: [The source words this procedure for another target and reports this target under the same test.] (§1) In Vitro Competitive Activity-Based Protein Profiling.
(§2) Proteomes (human prefrontal cortex or cell membrane fractions) (50 μL, 1.0 mg/mL total protein concentration) were preincubated with varying concentrations of inhibitors at 37° C. After 30 min, FP-Rh or HT-01 (1.0 μL, 50 μM in DMSO) was added and the mixture was incubated for another 30 min at room temperature. Reactions were quenched with SDS loading buffer (15 μL-4×) and run on SDS-PAGE.

MAGL = biological target: T2, MAGL (Homo sapiens, UniProt Q99685); experiment: In vitro competitive activity-based protein profiling (FP-Rh or HT-01 probe, gel-based); design: IC50 MGLL PC3 (Human, μM) / IC50 MGLL PFC (Human, μM): scale not given here; details: for % Inh MGLL PC3 (Human, μM) / IC50 MGLL PC3 (Human, μM): PC3 cell proteome; for % Inh MGLL PC3 (Human, μM) / % Inh MGLL PFC (Human, μM): concentration not given (μM); for IC50 MGLL PFC (Human, μM) / % Inh MGLL PFC (Human, μM): prefrontal cortex (PFC) proteome
T2 construct: Proteomes (human prefrontal cortex or cell membrane fractions); from tissue
T2 sequence (Q99685 1-303): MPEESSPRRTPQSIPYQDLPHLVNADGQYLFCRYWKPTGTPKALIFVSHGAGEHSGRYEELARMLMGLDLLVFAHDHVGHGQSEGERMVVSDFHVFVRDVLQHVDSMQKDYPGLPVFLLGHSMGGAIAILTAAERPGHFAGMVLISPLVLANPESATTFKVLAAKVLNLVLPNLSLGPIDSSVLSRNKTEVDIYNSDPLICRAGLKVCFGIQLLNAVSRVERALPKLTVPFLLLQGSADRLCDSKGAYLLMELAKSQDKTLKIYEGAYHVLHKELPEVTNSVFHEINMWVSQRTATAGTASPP
Description: as §1, §2

MGLL = biological target: T3, MGLL (Mus musculus, UniProt O35678); experiment: In vitro competitive activity-based protein profiling, mouse brain proteome (MGLL); design: IC50 MGLL Brain (Mouse, μM): scale not given here; details: for % Inh MGLL Brain (Mouse, μM): concentration not given (μM)
T3 construct: Brain; from tissue; host or cells: mouse brain proteome
T3 sequence (O35678 1-303): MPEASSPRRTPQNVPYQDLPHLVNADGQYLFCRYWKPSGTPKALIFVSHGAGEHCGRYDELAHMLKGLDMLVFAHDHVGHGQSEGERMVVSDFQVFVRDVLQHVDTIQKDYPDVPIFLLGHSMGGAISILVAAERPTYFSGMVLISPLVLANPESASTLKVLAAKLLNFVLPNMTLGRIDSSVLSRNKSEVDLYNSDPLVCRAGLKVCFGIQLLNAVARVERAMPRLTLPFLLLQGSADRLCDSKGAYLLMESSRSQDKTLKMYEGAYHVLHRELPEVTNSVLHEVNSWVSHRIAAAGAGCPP

SMILES	% Inh ABHD6 Brain (Mouse, μM) (ABHD6)	% Inh MGLL PC3 (Human, μM) (MAGL)	% Inh MGLL Brain (Mouse, μM) (MGLL)	IC50 MGLL PFC (Human, μM) (MAGL)	IC50 MGLL PC3 (Human, μM) (MAGL)	% Inh MGLL PFC (Human, μM) (MAGL)	IC50 MGLL Brain (Mouse, μM) (MGLL)
O=C(O)C1CCN(Cc2cc(C(F)(F)F)ccc2C(=O)N2CCCC23CCN(C(=O)OC(C(F)(F)F)C(F)(F)F)CC3)CC1 [Example 10, 1-(2-(8-(((1,1,1,3,3,3-Hexafluoropropan-2-yl)oxy)carbonyl)-1,8-diazaspiro[4.5]decane-1-carbonyl)-5-(trifluoromethyl)benzyl)piperidine-4-carboxylic acid]	# (# is ≤25%)	### (### is ≥75%)	### (### is ≥75%)	–	–	–	–
O=C(O)C1CCN(Cc2cc(Cl)cc(C(=O)N3CCCC34CCN(C(=O)OC(C(F)(F)F)C(F)(F)F)CC4)c2)CC1 [Example 11, 1-(3-Chloro-5-(8-(((1,1,1,3,3,3-hexafluoropropan-2-yl)oxy)carbonyl)-1,8-diazaspiro[4.5]decane-1-carbonyl)benzyl)piperidine-4-carboxylic acid]	# (# is ≤25%)	### (### is ≥75%)	### (### is ≥75%)	* * *	–	–	–
N#Cc1ccc(C(=O)N2CCC3(CCN(C(=O)OC(C(F)(F)F)C(F)(F)F)CC3)C2)cc1C(F)(F)F [Example 12, 1,1,1,3,3,3-Hexafluoropropan-2-yl 2-(4-cyano-3-(trifluoromethyl)benzoyl)-2,8-diazaspiro[4.5]decane-8-carboxylate]	### (### is ≥75%)	–	### (### is ≥75%)	–	* * *	### (### is ≥75%)	–
O=C(OC(C(F)(F)F)C(F)(F)F)N1CCC2(CCCN2C(=O)c2ccc(Cl)cc2)CC1 [Example 13, 1,1,1,3,3,3-Hexafluoropropan-2-yl 1-(4-chlorobenzoyl)-1,8-diazaspiro[4.5]decane-8-carboxylate]	### (### is ≥75%)	–	### (### is ≥75%)	–	–	### (### is ≥75%)	* * *
CN(Cc1ccc(C(F)(F)F)cc1N1CCC(C(=O)O)CC1)C1(C)CCN(C(=O)OC(C(F)(F)F)C(F)(F)F)CC1 [Example 14, 1-(2-(((1-(((1,1,1,3,3,3-Hexafluoropropan-2-yl)oxy)carbonyl)-4-methylpiperidin-4-yl)(methyl)amino)methyl)-5-(trifluoromethyl)phenyl)piperidine-4-carboxylic acid]	### (### is ≥75%)	–	### (### is ≥75%)	–	* * *	### (### is ≥75%)	–
O=C(O)C1CN(c2cc(C(F)(F)F)ccc2CN2CC3(CCN(C(=O)OC(C(F)(F)F)C(F)(F)F)CC3)C2)CCO1 (stereo not drawn) [Example 20, 4-(2-((7-(((1,1,1,3,3,3-Hexafluoropropan-2-yl)oxy)carbonyl)-2,7-diazaspiro[3.5]nonan-2-yl)methyl)-5-(trifluoromethyl)phenyl)morpholine-2-carboxylic acid]	## (## is between 25 and 75%)	–	### (### is ≥75%)	* * *	* * *	### (### is ≥75%)	* * *
O=C(O)c1cc(CN2CC3(CCN(C(=O)OC(C(F)(F)F)C(F)(F)F)CC3)C2)ccc1C(F)(F)F [Example 21, 5-((7-(((1,1,1,3,3,3-Hexafluoropropan-2-yl)oxy)carbonyl)-2,7-diazaspiro[3.5]nonan-2-yl)methyl)-2-(trifluoromethyl)benzoic acid]	### (### is ≥75%)	–	### (### is ≥75%)	–	* * *	### (### is ≥75%)	–
CC1(C(=O)O)CN(c2cc(CN3CC4(CCN(C(=O)OC(C(F)(F)F)C(F)(F)F)CC4)C3)cc(C(F)(F)F)c2)CCO1 (stereo not drawn) [Example 22, 4-(3-((7-(((1,1,1,3,3,3-Hexafluoropropan-2-yl)oxy)carbonyl)-2,7-diazaspiro[3.5]nonan-2-yl)methyl)-5-(trifluoromethyl)phenyl)-2-methylmorpholine-2-carboxylic acid]	### (### is ≥75%)	–	### (### is ≥75%)	–	* * *	### (### is ≥75%)	–
O=C(O)C1CCCCN1c1cc(C(F)(F)F)ccc1CN1CC2(CCN(C(=O)OC(C(F)(F)F)C(F)(F)F)CC2)C1 (stereo not drawn) [Example 23, 1-(2-((7-(((1,1,1,3,3,3-Hexafluoropropan-2-yl)oxy)carbonyl)-2,7-diazaspiro[3.5]nonan-2-yl)methyl)-5-(trifluoromethyl)phenyl)piperidine-2-carboxylic acid]	# (# is ≤25%)	–	# (# is ≤25%)	–	–	### (### is ≥75%)	–
CN(Cc1ccc(C(F)(F)F)cc1-c1nnn[nH]1)C1(C)CCN(C(=O)OC(C(F)(F)F)C(F)(F)F)CC1 [Example 24, 1,1,1,3,3,3-Hexafluoropropan-2-yl 4-((2-(1H-tetrazol-5-yl)-4-(trifluoromethyl)benzyl)(methyl)amino)-4-methylpiperidine-1-carboxylate]	## (## is between 25 and 75%)	–	### (### is ≥75%)	–	* * *	### (### is ≥75%)	–
CC1(OCc2cc(CN3CCC(C(=O)O)CC3)cc(C(F)(F)F)c2)CCN(C(=O)OC(C(F)(F)F)C(F)(F)F)CC1 [Example 25, 1-(3-(((1-(((1,1,1,3,3,3-Hexafluoropropan-2-yl)oxy)carbonyl)-4-methylpiperidin-4-yl)oxy)methyl)-5-(trifluoromethyl)benzyl)piperidine-4-carboxylic acid]	### (### is ≥75%)	### (### is ≥75%)	### (### is ≥75%)	–	* * *	–	–
CN(Cc1ccc(C(F)(F)F)cc1N1CCN(CC(=O)O)CC1)C1(C)CCN(C(=O)OC(C(F)(F)F)C(F)(F)F)CC1 [Example 26, 2-(4-(2-(((1-(((1,1,1,3,3,3-Hexafluoropropan-2-yl)oxy)carbonyl)-4-methylpiperidin-4-yl)(methyl)amino)methyl)-5-(trifluoromethyl)phenyl)piperazin-1-yl)acetic acid]	### (### is ≥75%)	### (### is ≥75%)	### (### is ≥75%)	* * *	* * *	–	–
CN(Cc1ccc(C(F)(F)F)cc1N1CC2CC1CN2CC(=O)O)C1(C)CCN(C(=O)OC(C(F)(F)F)C(F)(F)F)CC1 (stereo not drawn) [Example 27, 2-(5-(2-(((1-(((1,1,1,3,3,3-Hexafluoropropan-2-yl)oxy)carbonyl)-4-methylpiperidin-4-yl)(methyl)amino)methyl)-5-(trifluoromethyl)phenyl)-2,5-diazabicyclo[2.2.1]heptan-2-yl)acetic acid]	### (### is ≥75%)	### (### is ≥75%)	### (### is ≥75%)	* * *	* * *	–	–
